According to patent US7795203B2, “Method for topical treatment of eye disease and composition and device for said treatment” (priority 2002, dated 2010):
Where a SMILES comes first, the peptide text is derived from it.

How the values were obtained:
[1] = Clinical study of 0.1% N-Acetyl-RGDS in patients with POAG and OH (IOP, tonography); format: in vivo, human; details: 0.1% topically twice daily
Text: Without intending to be bound by theory, the inventor currently believes that RGD-containing peptides, and/or their pharmacologically acceptable salts, are efficacious for the therapeutical and surgical treatment of primary open-angle glaucoma (POAG) and ocular hypertension (OH). […] The effect of 0.1% N-Acetyl-RGDS on outflow facility, as studied by tonography, was striking providing a significant increase to 26-33%. The cleansing activity of Acetyl-RGDS is accompanied by increase in trabecular outflow facility which is different from that of other drugs (pilocarpine) previously shown in patients with POAG and OH. The clinical significance and mechanism of IOP reduction by N-Acetyl-RGDS are related with the cleansing effect of N-Acetyl-RGDS on extracellular matrix proteins and plaque material in trabecular meshwork to reduce the outflow resistance in the eyes of patients with POAG and OH. It is believed N-Acetyl-RGDS is also suitable to treat secondary cataracts and vitreoproliferative disorders.

[2] = Pharmacokinetic studies: N-acetylcarnosine in blood plasma after topical administration to the eye; format: in vivo
Method: (§1) Yet another advantage of the present invention is that systemic absorption of N-acetylcarnosine and/or carnosine is increased through the microvessels of the conjunctival and lid mucosal tissues because the cellulose compound increases the time of persistence of N-acetylcarnosine in the conjunctival sac. More particularly, N-acetylcarnosine appears in blood plasma within 30 min of its topical administration to the eye with carboxymethylcellulose. The half time of decay of N-acetylcarnosine in plasma is about 150 min or more according to pharmacokinetic studies. […] Accordingly, once in blood plasma N-acetylcarnosine can act as a competititve saturating inhibitor of carnosinase, which is very helpful to protect L-carnosine from hydrolysis during concomitant oral administration of L-carnosine as an anti-aging therapy.

[3] = target: T1, carnosinase (Homo sapiens, UniProt Q96KN2); assay: Hydrolysis with carnosinase; format: biochemical; details: substrate of carnosinase similar to L-carnosine
T1 sequence (Q96KN2 27-507 limits assumed): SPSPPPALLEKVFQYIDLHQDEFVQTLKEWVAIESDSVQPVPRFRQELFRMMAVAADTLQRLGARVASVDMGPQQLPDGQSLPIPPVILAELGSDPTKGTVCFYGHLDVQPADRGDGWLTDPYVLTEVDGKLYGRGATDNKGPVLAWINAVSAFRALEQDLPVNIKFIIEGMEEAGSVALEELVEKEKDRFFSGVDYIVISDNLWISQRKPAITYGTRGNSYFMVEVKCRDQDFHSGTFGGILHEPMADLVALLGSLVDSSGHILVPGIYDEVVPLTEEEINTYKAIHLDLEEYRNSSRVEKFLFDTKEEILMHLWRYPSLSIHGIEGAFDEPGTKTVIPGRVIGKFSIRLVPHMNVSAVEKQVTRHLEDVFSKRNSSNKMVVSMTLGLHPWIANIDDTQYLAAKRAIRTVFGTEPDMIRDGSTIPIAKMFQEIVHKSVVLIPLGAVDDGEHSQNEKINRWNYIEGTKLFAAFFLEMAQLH
Method: as §1

half time of decay in plasma ([2]; according to pharmacokinetic studies) [min]	time to appearance in blood plasma ([2]; topical administration to the eye with carboxymethylcellulose) [min]	Compound	tolerability [1]	resistance to hydrolysis with carnosinase [3]
		CC(=O)N[C@@H](CCCNC(=N)N)C(=O)NCC(=O)N[C@@H](CC(=O)O)C(=O)N[C@@H](CO)C(=O)O [N-Acetyl-RGDS, N-acetyl-Arg-Gly-Asp-Ser peptide] (Ac-RGDS-OH)	well tolerated	
≥ 150	≤ 30	CC(=O)NCCC(=O)N[C@@H](Cc1c[nH]cn1)C(=O)O [N-acetylcarnosine]		highly resistant to hydrolysis with carnosinase
